# Where “and” joins values, the source holds several entries; their conditions need not be identical. Equal values may be shown once.
# Molecular target: T1, NS3 (West Nile virus, UniProt K4FQI5)
# T1 sequence (K4FQI5 whole entry): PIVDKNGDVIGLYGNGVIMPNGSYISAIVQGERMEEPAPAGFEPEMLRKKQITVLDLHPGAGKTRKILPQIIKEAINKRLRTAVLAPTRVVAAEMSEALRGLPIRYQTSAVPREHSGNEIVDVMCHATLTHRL
# Test: Functional biochemical assay to identify treatments for viral infectious disease that targets West Nile NS2B-NS3 protease. Utilizing a direct enzyme activity measurement method, reading the fluorescence intensity is used to characterize the relative potency of inhibitors as IC50.
# Set-up: species or system NY-99
row,SMILES,IC50
1,O=C1c2c(O)ccc([N+](=O)[O-])c2C(=O)c2c([N+](=O)[O-])ccc(O)c21,> 100 µM
2,N=C(N)NCCC[C@H](NC(=O)[C@H](Cc1ccc(CN)cc1)NC(=O)c1ccccc1)B(O)O,0.065 µM and 0.217 µM
3,CCCCCC(=O)N[C@H](C(=O)NCc1cccc(CN)c1)c1ccc(OCc2ccccc2)cc1,72.3 µM
4,CCCCCC(=O)N[C@H](C(=O)Nc1ccc2[nH]ncc2c1)c1ccc(OCc2ccccc2)cc1,> 99.5 µM
5,CCCCCC(=O)N[C@H](C(=O)Nc1ccc(C(N)=O)cc1)c1ccc(OCc2ccccc2)cc1,> 99.5 µM
6,NCc1ccc(-c2ncc(OCC3CCNCC3)nc2-c2ccc(-c3ccoc3)cc2)cc1,98.4 µM
7,CCCC[C@H](NC(C)=O)C(=O)N[C@H](C(=O)NCc1ccc(C(N)=O)cc1)c1ccc(OCc2ccccc2)cc1,> 99.5 µM
8,NCc1ccc(-c2ncc(OCC3CCNCC3)nc2-c2ccc(C3CCOCC3)cc2)cc1,> 99.5 µM
9,CCCCCC(=O)N[C@H](C(=O)N1CCCCC1)c1ccc(OCc2ccccc2)cc1,> 99.5 µM
10,O=C(Nc1ccc2c(c1)B(O)OC2)c1cccc(OCc2c(Cl)cccc2Cl)c1,> 99.5 µM
11,O=C(Nc1ccc2c(c1)CNCC2)c1cc(Cl)cc2[nH]ncc12,26.3 µM
12,CC(C)(C)c1cc(Br)cc(C(=O)Nc2ccc3c(c2)CNC3)c1,88.2 µM
13,CN1Cc2ccc(NC(=O)c3cc(Cl)cc4[nH]ncc34)cc2C1,> 99.5 µM
14,O=C(Nc1ccc2c(c1)CNC2)c1cccc(-c2cnco2)c1,38.4 µM
15,O=C(Nc1ccc2c(c1)CNC2)c1cc(Br)cc2ccccc12,57.6 µM
16,O=C(Nc1ccc2c(c1)CNC2)c1cc(Cl)cc2c1CCC2,22.7 µM
17,O=C1Cc2c(cccc2C(=O)Nc2ccc3c(c2)CNC3)N1,6.16 µM
18,CC(C)c1cc(Br)cc(C(=O)Nc2ccc3c(c2)CNC3)c1,93.2 µM
19,O=C(Nc1cc(Cl)cc(C(=O)Nc2ccc3c(c2)CNC3)c1)OCc1ccccc1,17.7 µM and 48.4 µM and 25.2 µM
20,O=C(Nc1ccc2c(c1)CNC2)c1cc(Cl)cc2ccncc12,9.68 µM
21,NCc1cc(/C=C/C(=O)O)cc(NC(=O)c2cc(Cl)cc(NC(=O)OCc3ccccc3)c2)c1,85 µM
22,O=C1Cc2c(cc(Br)cc2C(=O)Nc2ccc3c(c2)CNC3)N1,3.18 µM
23,N=C(N)NCCc1ccccc1B(O)O,> 100 µM
24,NCc1cccc(NC(=O)c2cc(Cl)cc3c2cnn3CC2CC2)c1,68.2 µM
25,O=C(Nc1cc(Cl)cc([C@H](C#CCO)Nc2cccc(-c3nn[nH]n3)c2)c1)OCc1ccccc1,34.2 µM
26,NCc1cccc(NC(=O)c2cc(Cl)cc(-n3cccc3)c2)c1,> 99.5 µM

row,SMILES,IC50
1,N=C(N)NCCc1ccc(OC(=O)Nc2ccccc2)cc1,> 100 µM
2,O=C(Nc1ccc2c(c1)CNC2)c1cc(Cl)cc2cn[nH]c12,7.83 µM
3,NCc1cccc([C@H]2C[C@@H]2c2cc(Cl)cc(NC(=O)OCc3ccccc3)c2)c1,18.8 µM
4,N[C@H]1Cc2ccc(NC(=O)c3cc(Cl)cc(NC(=O)OCc4ccccc4)c3)cc2C1,35.9 µM
5,N#C[C@H](Nc1cccc(-c2nn[nH]n2)c1)c1cc(Cl)cc(NC(=O)OCc2ccccc2)c1,28.7 µM
6,O=C(Nc1ccc2c(c1)CNC2)c1cc(Cl)cc2[nH]ncc12,3.09 µM
7,O=C(NS(=O)(=O)C1CC1)c1cc(Cl)ccc1NS(=O)(=O)c1ccc(Oc2ccccc2Cl)cc1,75.6 µM
8,O=C(Nc1ccc2c(c1)CNC2)c1cc(Br)cc2[nH]c(=O)[nH]c12,4.67 µM
9,N#C[C@H](Nc1ccc2c(c1)CNC2)c1cc(Cl)cc2[nH]ncc12,20 µM
10,NCc1cccc(NC(=O)C[C@@H](NC(=O)OCc2ccccc2)c2ccc(OCc3ccccc3)cc2)c1,6.15 µM
11,NCc1cccc(NC(=O)[C@@H](NC(=O)OCc2ccccc2)c2ccc(OCc3ccccc3)cc2)c1,6.97 µM
12,O=C(Nc1cc(Cl)cc(C(=O)Nc2cccc([C@H]3C[C@H]3C(=O)O)c2)c1)OCc1ccccc1,81.5 µM
13,Clc1cc([C@@H]2C[C@H]2c2cccc(C3CCNCC3)c2)c2cn[nH]c2c1,10.9 µM
14,NCc1cccc(NC(=O)C[C@H](NC(=O)OCc2ccccc2)c2ccc(OCc3ccccc3)c(Br)c2)c1,8.65 µM
15,NCc1cccc(NC(=O)c2cc(Cl)cc(CN)c2)c1,9.79 µM
16,CCn1c(=O)c(N2CC[C@@H](CO)C2)nc2ccccc21,> 99.5 µM
17,Cc1c(C(=O)Nc2cc(-c3cccnc3)ccn2)cc(C2CC2)n1C,12.8 µM
18,NCc1cccc(NC(=O)[C@H](NC(=O)OCc2ccccc2)c2ccc(Br)c(Cl)c2)c1,6.57 µM
19,NCCc1ccc([C@H]2C[C@@H]2c2cc(Cl)cc(NC(=O)OCc3ccccc3)c2)cc1,7.12 µM
20,COc1cc(Cc2c(-c3ccc(F)cc3)noc2C)nc(N2CCNCC2)n1,67.3 µM
21,c1ccc2c(CN3CCC(c4cscn4)CC3)c[nH]c2c1,> 99.5 µM
22,Cc1nc2c(C(=O)Nc3ccc4c(c3)CNC4)cc(Cl)cc2[nH]1,> 12.4 µM
23,N=C(N)Nc1ccc(NC(=O)Oc2ccccc2)cc1,> 100 µM
24,N=C(N)Nc1ccc(OC(=O)Nc2ccccc2)cc1,> 100 µM
25,CCOc1cccc(-c2ccc(S(=O)(=O)Nc3ccc(Cl)cc3C(=O)O)cc2)c1,12.6 µM
26,NCCc1ccc(NC(=O)c2cc(Cl)cc(NC(=O)OCc3ccccc3)c2)cc1,16 µM

row,SMILES,IC50
1,O=C(O)c1cc(Oc2ccc(F)cc2)c(F)cc1NS(=O)(=O)c1ccc(Oc2ccccc2Cl)cc1,3.39 µM
2,NCCc1cccc(NC(=O)c2cc(Cl)cc(NC(=O)OCc3ccccc3)c2)c1,23.6 µM
3,c1ccc2sc(C3CCN(Cc4c[nH]c5ccccc45)CC3)nc2c1,> 99.5 µM
4,N=C(N)NCCc1ccc(NC(=O)Oc2ccccc2)cc1,72.1 µM
5,C=CC[C@H](Nc1cc(Cl)cc(NC(=O)OCc2ccccc2)c1)c1cccc(-c2nn[nH]n2)c1,14.4 µM
6,CNC(=O)[C@H](Nc1cc(CN)cc(C(=O)O)c1)c1cc(Cl)cc(C2CC2)c1,1.46 µM
7,CC(C)CNC(=O)c1cc(Cl)c(F)cc1NS(=O)(=O)c1ccc(Oc2ccccc2Cl)cc1,24.9 µM
8,CCNC(=O)Nc1cc(Cl)cc(C(=O)Nc2ccc3c(c2)CNCCO3)c1,15.5 µM
9,CC(C)CNC(=O)c1cc(Cl)ccc1NS(=O)(=O)c1ccc(Oc2ccccc2Cl)cc1,> 99.5 µM
10,NCc1cccc(CNC(=O)[C@H](NC(=O)OCc2ccccc2)c2ccc(OCc3ccccc3)cc2)c1,13.3 µM
11,C[C@@H](Oc1ccc(S(=O)(=O)Nc2ccc(Cl)cc2C(=O)O)cc1)c1ccccc1F,20.1 µM
12,O=C(NC1CCOCC1)[C@H](Nc1ccc2c(c1)CNC2)c1cc(Cl)cc2[nH]ncc12,0.115 µM
13,NCc1cccc(NC(=O)c2cc(Br)cc3[nH]ccc23)c1,> 99.5 µM
14,O=C(O)c1cc2c(cc1NS(=O)(=O)c1ccc(Oc3ccccc3Cl)cc1)CCC2,16.4 µM
15,CNC(=O)[C@H](Nc1cc(Cl)cc(NC(=O)OCc2ccccc2)c1)c1cccc(-c2nn[nH]n2)c1,> 99.5 µM
16,O=C(Nc1ccc2c(c1)CNC2)c1cc(F)c2[nH]ccc2c1,20.1 µM
17,CS(=O)(=O)NC(=O)c1cc(Cl)ccc1NS(=O)(=O)c1ccc(Oc2ccccc2Cl)cc1,74.5 µM
18,OCC#C[C@H](Nc1ccc2c(c1)CNC2)c1cc(Cl)cc2[nH]ncc12,22.4 µM
19,NCc1cccc(NC(=O)c2cc(Cl)cc(NC(=O)OCc3ccccc3)c2)c1,22.9 µM
20,c1cc(C2CCN(Cc3c[nH]c4ccccc34)CC2)c2ccncc2c1,> 99.5 µM
21,Cc1cccc(-c2nc3c(C(=O)Nc4ccc5c(c4)CNC5)cc(Cl)cc3[nH]2)c1O,17.4 µM
22,CNC(=O)[C@H](Nc1cccc(CN)c1)c1cc(Cl)cc(NC(=O)OCc2ccccc2)c1,1.88 µM
23,O=C(Nc1ccc2c(c1)CNC2)c1cccc2[nH]c(=O)[nH]c12,1.47 µM
24,O=C(NCC(F)(F)F)c1cc(Cl)c(F)cc1NS(=O)(=O)c1ccc(Oc2ccccc2Cl)cc1,9.32 µM
25,c1ccc2c(CN3CCC(c4c[nH]c5cccnc45)CC3)c[nH]c2c1,> 99.5 µM
26,O=C(O)c1cc(Cl)c(F)cc1S(=O)(=O)Nc1ccc(Oc2ccccc2Cl)cc1,32.6 µM

row,SMILES,IC50
1,NCc1cccc(NC(=O)[C@H]2[C@H]3CCCCC[C@H]3[C@H]2NC(=O)OCc2ccccc2)c1,47.1 µM
2,CCc1cc(C(=O)Nc2cccc(-n3nn[nH]c3=O)c2)sc1-c1ccc(Cl)cc1,20.1 µM
3,CCn1c(=O)c(N2C[C@H]3CCS(=O)(=O)[C@H]3C2)nc2ccccc21,> 99.5 µM
4,Cc1c(C(=O)Nc2cc(CCCN)ccn2)cc(C2CC2)n1C,58.6 µM
5,Cc1cc(-c2ccc([C@@H](NC(=O)OCc3ccccc3)C(=O)Nc3cccc(CN)c3)cc2)cs1,3.42 µM
6,O=C(O)c1cc(Cl)ccc1NS(=O)(=O)c1ccc(-c2ccc(F)cc2)cc1,29.5 µM
7,CCOCCNC(=O)[C@H](Nc1ccc2c(c1)CNC2)c1cc(Cl)cc2[nH]ncc12,0.465 µM
8,N=C(N)NCCc1cccc(B(O)O)c1,> 100 µM
9,N=C(N)NCc1ccc(NC(=O)Oc2ccccc2)cc1,> 100 µM
10,O=C(Nc1cc(Cl)cc(C(=O)Nc2ccc3c(c2)CCNC3)c1)OCc1ccccc1,49.5 µM
11,N=C(N)NCc1ccc(OC(=O)Nc2ccccc2)cc1,> 100 µM
12,CNC(=O)c1cc(Cl)c(F)cc1NS(=O)(=O)c1ccc(Oc2ccccc2Cl)cc1,30.6 µM
13,NCc1cccc(NC(=O)[C@H](NC(=O)OCc2ccccc2)C2CCC(c3ccccc3)CC2)c1 (stereo partly specified),8.31 µM
14,Cc1ccc(NC(=O)c2cc(Cl)cc(NC(=O)OCc3ccccc3)c2)cc1CN,60.7 µM
15,NS(=O)(=O)c1ccc(C2CCN(Cc3c[nH]c4ccccc34)CC2)cc1,> 99.5 µM
16,NCc1cc(Cl)cc(C(=O)Nc2ccc3c(c2)CNC3)c1,9.96 µM
17,Cc1[nH]c2ccccc2c1CN1CCC(c2c[nH]c3ncccc23)CC1,> 99.5 µM
18,N[C@H]1CCc2cc(NC(=O)c3cc(Cl)cc(NC(=O)OCc4ccccc4)c3)ccc21,45.1 µM
19,Cc1[nH]c2ccccc2c1CN1CCC(c2nc3ccccc3s2)CC1,> 99.5 µM
20,O=C(O)c1cc(Cl)ccc1S(=O)(=O)NC1CCN(c2nc(C3CC3)cc(C(F)(F)F)n2)CC1,48.5 µM
21,CNC(=O)[C@H](Nc1cc(CN)cc(-c2nn[nH]n2)c1)c1cc(Cl)cc(C2CC2)c1,1 µM
22,O=C(Nc1ccc(F)nc1)Oc1ccccc1,> 100 µM
23,O=C(Nc1cc(Cl)cc(C(=O)Nc2cccc(-n3nn[nH]c3=O)c2)c1)OCc1ccccc1,32.9 µM

# Source: ChEMBL document CHEMBL5604061, “ASAP - WNV NS2B-NS3 protease fluorescence dose response” (2024)
